Converted amounts (≈) assume the structure as drawn.
What was measured:
Format in all cases: functional
[1] = test system: Staphylococcus aureus; assay: In vitro inhibition of growth of methicillin-resistant Staphylococcus aureus MRSA 76 (clinical isolates)
[2] = test system: Staphylococcus aureus; assay: In vitro inhibition of growth of methicillin-resistant Staphylococcus aureus MRSA spain 356 (clinical isolates)
[3] = test system: Staphylococcus aureus; assay: In vitro inhibition of growth of methicillin-resistant Staphylococcus aureus MRSA ATCC 335893 (clinical isolates)

Compound	MIC [1] [µg/mL]	MIC [2] [µg/mL]	MIC [3] [µg/mL]
NCCSCc1nc(N)sc1SC1=C(C(=O)O)N2C(=O)[C@@H](NC(=O)/C(=N\O)c3cccc(N)n3)[C@H]2SC1	8 (≈ 13.7 µM)	4 (≈ 6.86 µM)	2 (≈ 3.43 µM)
NCCSCc1csc(SC2=C(C(=O)O)N3C(=O)[C@@H](NC(=O)/C(=N\O)c4cccc(N)n4)[C@H]3SC2)n1	2 (≈ 3.52 µM)	2 (≈ 3.52 µM)	1 (≈ 1.76 µM)
NCCSCc1ccccc1SC1=C(C(=O)O)N2C(=O)[C@@H](NC(=O)/C(=N\O)c3cccc(N)n3)[C@H]2SC1	1 (≈ 1.78 µM)	1 (≈ 1.78 µM)	1 (≈ 1.78 µM)
NCCSCc1ncsc1SC1=C(C(=O)O)N2C(=O)[C@@H](NC(=O)/C(=N\O)c3cccc(N)n3)[C@H]2SC1	2 (≈ 3.52 µM)	2 (≈ 3.52 µM)	1 (≈ 1.76 µM)
NCCSCc1cnccc1SC1=C(C(=O)O)N2C(=O)[C@@H](NC(=O)/C(=N\O)c3nc(N)sc3Cl)[C@H]2SC1	1 (≈ 1.66 µM)	1 (≈ 1.66 µM)	1 (≈ 1.66 µM)
COc1nc(CSCCN)c(SC2=C(C(=O)O)N3C(=O)[C@@H](NC(=O)/C(=N\O)c4cccc(N)n4)[C@H]3SC2)s1	4 (≈ 6.69 µM)	4 (≈ 6.69 µM)	4 (≈ 6.69 µM)
NCCSCc1nc(SCCN)sc1SC1=C(C(=O)O)N2C(=O)[C@@H](NC(=O)/C(=N\O)c3cccc(N)n3)[C@H]2SC1	1 (≈ 1.56 µM)	1 (≈ 1.56 µM)	1 (≈ 1.56 µM)
NCCSCc1cnccc1SC1=C(C(=O)O)N2C(=O)[C@@H](NC(=O)/C(=N\O)c3cccc(N)n3)[C@H]2SC1	1 (≈ 1.78 µM)	2 (≈ 3.56 µM)	2 (≈ 3.56 µM)
Cc1nc(CSCCN)c(SC2=C(C(=O)O)N3C(=O)[C@@H](NC(=O)/C(=N\O)c4cccc(N)n4)[C@H]3SC2)s1	2 (≈ 3.44 µM)	2 (≈ 3.44 µM)	2 (≈ 3.44 µM)
NCCSCc1nc(Cl)sc1SC1=C(C(=O)O)N2C(=O)[C@@H](NC(=O)/C(=N\O)c3cccc(N)n3)[C@H]2SC1	2 (≈ 3.32 µM)	1 (≈ 1.66 µM)	1 (≈ 1.66 µM)
NCCSc1cncc(SC2=C(C(=O)O)N3C(=O)[C@@H](NC(=O)/C(=N\O)c4cccc(N)n4)[C@H]3SC2)n1	16 (≈ 29.2 µM)	16 (≈ 29.2 µM)	8 (≈ 14.6 µM)
NCCCSc1nsc(SC2=C(C(=O)O)N3C(=O)[C@@H](NC(=O)/C(=N\O)c4cccc(N)n4)[C@H]3SC2)n1	2 (≈ 3.52 µM)	2 (≈ 3.52 µM)	2 (≈ 3.52 µM)
NCCSc1nsc(SC2=C(C(=O)O)N3C(=O)[C@@H](NC(=O)/C(=N\O)c4cccc(N)n4)[C@H]3SC2)n1	2 (≈ 3.61 µM)	2 (≈ 3.61 µM)	2 (≈ 3.61 µM)
NCCSCc1nnsc1SC1=C(C(=O)O)N2C(=O)[C@@H](NC(=O)/C(=N\O)c3cccc(N)n3)[C@H]2SC1	1 (≈ 1.76 µM)	1 (≈ 1.76 µM)	1 (≈ 1.76 µM)
NCCSc1nccnc1SC1=C(C(=O)O)N2C(=O)[C@@H](NC(=O)/C(=N\O)c3cccc(N)n3)[C@H]2SC1	2 (≈ 3.65 µM)	2 (≈ 3.65 µM)	2 (≈ 3.65 µM)
NCCSCc1nnsc1SC1=C(C(=O)O)N2C(=O)[C@@H](NC(=O)/C(=N\O)c3csc(N)n3)[C@H]2SC1	1 (≈ 1.74 µM)	1 (≈ 1.74 µM)	1 (≈ 1.74 µM)
NCCSCc1nsc(SC2=C(C(=O)O)N3C(=O)[C@@H](NC(=O)/C(=N\O)c4cccc(N)n4)[C@H]3SC2)n1	4 (≈ 7.03 µM)	4 (≈ 7.03 µM)	2 (≈ 3.52 µM)
NCCSc1nccc(SC2=C(C(=O)O)N3C(=O)[C@@H](NC(=O)/C(=N\O)c4cccc(N)n4)[C@H]3SC2)n1	16 (≈ 29.2 µM)	16 (≈ 29.2 µM)	8 (≈ 14.6 µM)
C[C@@H](O)[C@H]1C(=O)N2C(C(=O)O)=C(SCCNC=N)C[C@H]12 [IMIPENEM ANHYDROUS]	32 (≈ 107 µM)	32 (≈ 107 µM)	32 (≈ 107 µM)

From ChEMBL document CHEMBL1134814, “New anti-MRSA cephalosporins with a basic aminopyridine at the C-7 position” (2001)
